# Results as given in patent US8952024B2, “Herbicidal pyrimidone derivatives” (E I du Pont de Nemours and Company, priority 2009, dated 2015).
# Like-named read-outs stand apart in the source and are kept apart here.
# Legend:
# Assay type in all cases: in vivo
# [1] = test system: large crabgrass (Digitaria sanguinalis); assay: Test B pre-/postemergence plant response; settings: Preemergence
# Summary of the method: (§1)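 Visual ratings on a 0–100 scale (100 = complete control) were made versus untreated controls 13–15 days after treatment in a greenhouse. Compounds in surfactant-containing non-phytotoxic solvent were applied preemergence to seeds in loam–sand blend or postemergence to 1- to 4-leaf plants (2–18 cm).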
# [2] = test system: morningglory (Ipomoea coccinea); assay: Test B pre-/postemergence plant response; settings: for pest or weed control at 125 g/ha: 125 g ai/ha
# Summary of the method: as §1
# [3] = test system: wheat (Triticum aestivum); assay: Test B pre-/postemergence plant response; settings: for plant injury at 31 g/ha: 31 g ai/ha; for plant injury at 62 g/ha: 62 g ai/ha; for plant injury at 125 g/ha: 125 g ai/ha
# Summary of the method: as §1
# wild oat (Avena fatua) = assay: Test B pre-/postemergence plant response; settings: for pest or weed control at 31 g/ha: 31 g ai/ha; for pest or weed control at 62 g/ha: 62 g ai/ha; for pest or weed control at 125 g/ha: 125 g ai/ha
# Summary of the method: as §1
# [4] = test system: yellow nutsedge (Cyperus esculentus); assay: Test B pre-/postemergence plant response; settings: for pest or weed control at 31 g/ha: 31 g ai/ha; for pest or weed control at 62 g/ha: 62 g ai/ha; for pest or weed control at 125 g/ha: 125 g ai/ha
# Summary of the method: as §1
# [5] = test system: barnyardgrass (Echinochloa crus-galli); assay: Test B flooded paddy test
# Summary of the method: (§2)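 Ratings are visual, 0–100 (100 = complete control), taken versus untreated controls 13 to 15 days after treatment in the greenhouse. Compound went straight into paddy water held 3 cm above soil, applied to 2-leaf-stage plants of four species.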
# [6] = test system: umbrella sedge (Cyperus difformis); assay: Test B flooded paddy test
# Summary of the method: as §2
# [7] = Preemergence, 250 g ai/ha, 0 to 100 scale
# [8] = Triticum aestivum, pre-emergence, Preemergence, scale 0 to 100 (0 no effect, 100 complete control), read-out: Plant response rating, Wheat
# [9] = Avena fatua, pre-emergence, Preemergence, scale 0 to 100 (0 no effect, 100 complete control), read-out: Plant response rating, Oat, Wild
# [10] = Cyperus, pre-emergence, Preemergence, scale 0 to 100 (0 no effect, 100 complete control), read-out: Plant response rating, Nutsedge, Yellow
# [11] = Flood, 31 g ai/ha, scale 0 to 100 (0 no effect, 100 complete control)
smiles,measurement,setting,value
"COCCn1c(-c2cc(F)cc(F)c2)ncc(C(=O)C2=C(O)C3CCC(C3)C2=O)c1=O (centres unmarked) [Compound 243, 2-(3,5-difluorophenyl)-5-[(2-hydroxy-4-oxobicyclo[3.2.1]oct-2-en-3-yl)carbonyl]-3-(2-methoxyethyl)-4(3H)-pyrimidinone]",pest or weed control at 62 g/ha,"[1]; Digitaria sanguinalis, pre-emergence, 62 g ai/ha, scale 0 to 100 (0 no effect, 100 complete control), read-out: Plant response rating, Crabgrass, Large",100%
same,pest or weed control at 125 g/ha,"[1]; Digitaria sanguinalis, pre-emergence, 125 g ai/ha, scale 0 to 100, 0 no effect, 100 complete control, read-out: Plant response rating, Crabgrass, Large",100%
same,"Crabgrass, Large plant response rating","[1]; 250 g ai/ha, 0 to 100 scale",100
same,pest or weed control at 31 g/ha,"[2]; Ipomoea, post-emergence, Postemergence, 31 g ai/ha, 0 to 100 scale (0 no effect, 100 complete control), read-out: Plant response rating, Morningglory",95%
same,pest or weed control at 62 g/ha,"[2]; Ipomoea, post-emergence, Postemergence, 62 g ai/ha, scale 0 to 100 (0 no effect, 100 complete control), read-out: Plant response rating, Morningglory",100%
same,pest or weed control at 125 g/ha,"[2]; Ipomoea, post-emergence, Postemergence, scale 0 (no effect) to 100 (complete control), 13 to 15 days, read-out: Plant response rating, Morningglory",100%
same,pest or weed control at 250 g/ha,"[2]; Ipomoea, post-emergence, Postemergence, 250 g ai/ha, scale 0 to 100 (0 no effect, 100 complete control), 13 to 15 days, read-out: Plant response rating, Morningglory",100%
same,pest or weed control at 125 g/ha,"[2]; Ipomoea, pre-emergence, Preemergence, scale 0 to 100, 0 no effect, 100 complete control, read-out: Plant response rating, Morningglory",98%
same,Morningglory plant response rating,[2]; [7],100
same,Wheat plant response rating,[3]; [7],70
same,plant injury at 31 g/ha,"[3]; Triticum aestivum, post-emergence, Postemergence, 0 to 100 scale (0 no effect, 100 complete control), read-out: Plant response rating, Wheat",85%
same,plant injury at 62 g/ha,"[3]; Triticum aestivum, post-emergence, Postemergence, scale 0 to 100 (0 no effect, 100 complete control), read-out: Plant response rating, Wheat",95%
same,plant injury at 125 g/ha,"[3]; Triticum aestivum, post-emergence, Postemergence, scale 0 (no effect) to 100 (complete control), 13 to 15 days, read-out: Plant response rating, Wheat",95%
same,plant injury at 250 g/ha,"[3]; Triticum aestivum, post-emergence, Postemergence, 250 g ai/ha, scale 0 to 100 (0 no effect, 100 complete control), 13 to 15 days, read-out: Plant response rating, Wheat",100%
same,plant injury at 31 g/ha,[3]; [8],0%
same,plant injury at 62 g/ha,[3]; [8],40%
same,plant injury at 125 g/ha,"[3]; Triticum aestivum, pre-emergence, Preemergence, scale 0 to 100, 0 no effect, 100 complete control, read-out: Plant response rating, Wheat",70%
same,pest or weed control at 31 g/ha,"wild oat (Avena fatua); Avena fatua, post-emergence, Postemergence, 0 to 100 scale (0 no effect, 100 complete control), read-out: Plant response rating, Oat, Wild",80%
same,pest or weed control at 62 g/ha,"wild oat (Avena fatua); Avena fatua, post-emergence, Postemergence, scale 0 to 100 (0 no effect, 100 complete control), read-out: Plant response rating, Oat, Wild",85%
same,pest or weed control at 125 g/ha,"wild oat (Avena fatua); Avena fatua, post-emergence, Postemergence, scale 0 (no effect) to 100 (complete control), 13 to 15 days, read-out: Plant response rating, Oat, Wild",85%
same,pest or weed control at 250 g/ha,"wild oat (Avena fatua); Avena fatua, post-emergence, Postemergence, 250 g ai/ha, scale 0 to 100 (0 no effect, 100 complete control), 13 to 15 days, read-out: Plant response rating, Oat, Wild",100%
same,pest or weed control at 31 g/ha,wild oat (Avena fatua); [9],30%
same,pest or weed control at 62 g/ha,wild oat (Avena fatua); [9],85%
same,pest or weed control at 125 g/ha,"wild oat (Avena fatua); Avena fatua, pre-emergence, Preemergence, scale 0 to 100, 0 no effect, 100 complete control, read-out: Plant response rating, Oat, Wild",85%
same,"Oat, Wild plant response rating",wild oat (Avena fatua); [7],90
same,pest or weed control at 31 g/ha,"[4]; Cyperus, post-emergence, Postemergence, 0 to 100 scale (0 no effect, 100 complete control), read-out: Plant response rating, Nutsedge, Yellow",65%
same,pest or weed control at 62 g/ha,"[4]; Cyperus, post-emergence, Postemergence, scale 0 to 100 (0 no effect, 100 complete control), read-out: Plant response rating, Nutsedge, Yellow",65%
same,pest or weed control at 125 g/ha,"[4]; Cyperus, post-emergence, Postemergence, scale 0 (no effect) to 100 (complete control), 13 to 15 days, read-out: Plant response rating, Nutsedge, Yellow",70%
same,pest or weed control at 250 g/ha,"[4]; Cyperus, post-emergence, Postemergence, 250 g ai/ha, scale 0 to 100 (0 no effect, 100 complete control), 13 to 15 days, read-out: Plant response rating, Nutsedge, Yellow",85%
same,pest or weed control at 31 g/ha,[4]; [10],65%
same,pest or weed control at 62 g/ha,[4]; [10],80%
same,pest or weed control at 125 g/ha,"[4]; Cyperus, pre-emergence, Preemergence, scale 0 to 100, 0 no effect, 100 complete control, read-out: Plant response rating, Nutsedge, Yellow",90%
same,"Nutsedge, Yellow plant response rating",[4]; [7],95
same,pest or weed control at 250 g/ha,"[5]; Echinochloa crus-galli, 360 h, 250 g ai/ha, flooded paddy test, visual rating on 0 to 100 scale (0 no effect, 100 complete control) after 13 to 15 days, read-out: Plant response rating, Flood, Barnyardgrass",85%
same,pest or weed control at 62 g/ha,"[5]; Echinochloa crus-galli, 360 h, Flood (flooded paddy test), 62 g ai/ha, scale of 0 to 100 where 0 is no effect and 100 is complete control, 13 to 15 days, read-out: Plant response rating, Barnyardgrass",30%
same,pest or weed control at 125 g/ha,"[5]; Echinochloa crus-galli, 360 h, Flood (flooded paddy test), 125 g ai/ha, scale 0 to 100, 0 is no effect, 100 is complete control, 13 to 15 days, read-out: Plant response rating, Barnyardgrass",75%
same,Barnyardgrass plant response rating,[5]; [11],0
same,pest or weed control at 250 g/ha,"[6]; Cyperus difformis, 360 h, 250 g ai/ha, flooded paddy test, visual rating on 0 to 100 scale (0 no effect, 100 complete control) after 13 to 15 days, read-out: Plant response rating, Flood, Sedge, Umbrella",100%
same,pest or weed control at 62 g/ha,"[6]; Cyperus difformis, 360 h, Flood (flooded paddy test), 62 g ai/ha, scale of 0 to 100 where 0 is no effect and 100 is complete control, 13 to 15 days, read-out: Plant response rating, Sedge, Umbrella",90%
same,pest or weed control at 125 g/ha,"[6]; Cyperus difformis, 360 h, Flood (flooded paddy test), 125 g ai/ha, scale 0 to 100, 0 is no effect, 100 is complete control, 13 to 15 days, read-out: Plant response rating, Sedge, Umbrella",100%
same,"Sedge, Umbrella plant response rating",[6]; [11],0
